# Source: patent US20200325178A1, “PEPTIDE NUCLEIC ACID MOLECULES FOR TREATMENT OF GRAM POSITIVE BACTERIAL INFECTION” (priority 2017, published 2020)
# Columns and labels:
# [1] = test system: S. aureus MRSA strains; assay: Bioscreen-C dose response growth curve of MRSA over 24 hours; format: cell-based, Staphylococcus aureus; conditions: HCl salts, doses from 100 μg downwards, 10 mM sodium bicarbonate buffer pH-7.4, OD 420-580 nm
# Protocol: (§1) Bioscreen-C instrument was used to detect the MIC and MBC of PNA-CPP derivatives against S. aureus MRSA strains. Different concentration of PNA-CPP derivatives were prepared in 10 mM of sodium bicarbonate buffer pH-7.4 and added to ˜5.0 Log 10 CFUs in a Honey comb Bioscreen-C plate.
# Compound I-V were assayed against MRSA. FIG. 6-10 show a dose response growth curve of MRSA in presence of increasing concentrations of Compound I-HCl (FIG. 6), Compound II-HCl (FIG. 7), Compound III-HCl (FIG. 8), Compound IV-HCl (FIG. 9), and Compound V-HCl (FIG. 10), determined in a Bioscreen-C spectrophotometer.
# [2] = test system: S. aureus (ATCC BAA-1556); assay: Murine thigh infection model; format: in vivo; conditions: for Mean Log 10 CFU/Thigh / Mean Log 10 Change vs. 1 hr / Mean Log 10 Change vs. 24 hr (vehicle): neutropenic CD-1 mice, 10 mg/kg, 0.2 ml IV, 24 hrs
# Protocol: Female 5-6 week old CD-1 (18-22 gm) were used in this study. Mice were quarantined for 48 hours before use and housed in groups of 5 with free access to food and water during the study.
# The animals were made neutropenic by administration of cyclophosphamide on Days −4 and −1. On Days −4 150 mg/kg of cyclohsphamide administered by intraperitoneal route and 100 mg/kg was administered on Days −1. Days listed are referenced from the date of infection (study day-Day 0).
# On Day 0, animals were inoculated intramuscularly (0.1 ml/thigh) with ˜1×10^5 CFU/mouse of S. aureus (ATCC BAA-1556) into right thigh. […] Group-3 of mice were administered with vancomycin at 25 mg/kg via subcutaneous route. Group-4 of mice administered with buffer and group-5 used as the inoculation control.
# Mice were euthanized by CO2 inhalation and thighs were removed, and placed in 2 ml of sterile PBS, homogenized, serially diluted and plated to determine the CFU counts. Plates were incubated 18-24 hours and CFUs were counted.
# Colony were counted and the number of colonies is converted to CFU/thigh by multiplying the number of colonies by the volume of the thigh homogenate spotted and the dilution at which the colonies were counted (5-50 colonies/spot). All count data were transformed into logo CFU/thigh for calculation of means and standard deviations.
# [3] = test system: MRSA clinical isolates and ATCC strains; assay: MIC and MBC against MRSA clinical isolates and ATCC strains; format: cell-based, Staphylococcus aureus; parameters: unit not given here
# Protocol: as §1
# After the growth curve assays, the number of colony forming units (CFU) were counted to determine the MIC and MBC of each PNA-CPP derivative against MRSA.
# Minimum inhibitory concentration (MIC) analyses were performed as described in Clinical and Laboratory Standards Institute, Methods for Dilution Antimicrobial Susceptibility Tests for Bacteria that Grow Aerobically, 7th ed.; Approved Standard M7-A7; CLSI: Wayne, Pa., USA, 2006; volume 26, No. 2. […] MIC was determined as the lowest concentration of agent that inhibits bacterial growth detected at A420-580 nm.
# [4] = test system: MSSA clinical isolates and ATCC strains; assay: MIC and MBC against MSSA clinical isolates and ATCC strains; format: cell-based, Staphylococcus aureus; parameters: MIC: unit not given here
# Protocol: (§2) Bioscreen-C instrument was used to detect the MIC and MBC of PNA-CPP derivatives against S. aureus MSSA strains. Different concentrations of PNA-CPP derivatives were prepared in 10 mM of sodium bicarbonate buffer pH-7.4 and added to ˜5.0 Log 10 CFUs in a Honey comb Bioscreen-C plate.
# After the growth curve assays, the number of colony forming units (CFU) were counted to determine the MIC and MBC of each PNA-CPP derivative against MSSA.
# Minimum inhibitory concentration (MIC) analyses were performed as described in Clinical and Laboratory Standards Institute, Methods for Dilution Antimicrobial Susceptibility Tests for Bacteria that Grow Aerobically, 7th ed.; Approved Standard M7-A7; CLSI: Wayne, Pa., USA, 2006; volume 26, No. 2. Vancomycin and Oxacillin were used as controls. MIC was determined as the lowest concentration of agent that inhibits bacterial growth detected at A420-580 nm.
# [5] = test system: S. aureus MSSA strains; assay: Bioscreen-C dose response growth curve of MSSA over 24 hours; format: cell-based, Staphylococcus aureus; conditions: HCl salts, doses from 100 μg downwards, 10 mM sodium bicarbonate buffer pH-7.4, OD 420-580 nm
# Protocol: as §2
# Compound I-V were assayed against MSSA. FIG. 12-16 show a dose response growth curve of MSSA in presence of increasing concentrations of Compound I-HCl (FIG. 12), Compound II-HCl (FIG. 13), Compound III-HCl (FIG. 14), Compound IV-HCl (FIG. 15), and Compound V-HCl (FIG. 16), determined in a Bioscreen-C spectrophotometer.
# [6] = MSSA table, isolate MRSA#16 [sic]
# [7] = MSSA table, isolate MRSA#25 [sic]
# [8] = MSSA table, isolate MRSA#27 [sic]
# [9] = MSSA table, isolate MRSA#34 [sic]
# [10] = MSSA table, isolate MRSA#38 [sic]
# [11] = MSSA table, isolate MRSA#57 [sic]
# [12] = MSSA table, isolate MRSA#60 [sic]
# [13] = MSSA table, isolate printed MRSA#49
# [14] = MSSA table, isolate printed MRSA#61
substance,measurement,setting,value
"Compound I: PNA-CPP conjugate: PNA cgt cat acg cgg tcc (SEQ ID NO: 51), AEEA linker, CPP BXRXRRXRRXRRXR; FIG. 1 (CGTCATACGCGGTCC; all peptide nucleic acid (PNA); cell-penetrating peptide attached via AEEA linker, further chemistry not fully specified)",lowest dose at which no MRSA growth was observed (growth curve),[1],3.13 µg
same,reduction in CFU counts compared to Vancomycin positive control treatment,"[2]; administered at 1 and 13 hours or at 1, 9, and 17 hours",comparable or improved reduction in CFU counts
same,Mean Log 10 CFU/Thigh,[2]; +1 & 13 hrs,4.46 Log 10 CFU/Thigh
same,Mean Log 10 Change vs. 1 hr,[2]; +1 & 13 hrs,−1.16 Log 10
same,Mean Log 10 Change vs. 24 hr (vehicle),[2]; +1 & 13 hrs,−4.07 Log 10
same,Mean Log 10 CFU/Thigh,"[2]; +1, +9, & +17 hrs",3.46 Log 10 CFU/Thigh
same,Mean Log 10 Change vs. 1 hr,"[2]; +1, +9, & +17 hrs",−2.16 Log 10
same,Mean Log 10 Change vs. 24 hr (vehicle),"[2]; +1, +9, & +17 hrs",−5.07 Log 10
same,MBC,[3]; isolate MRSA#1,1.56
same,MIC,[3]; isolate MRSA#1,0.78
same,MBC,[3]; isolate MRSA#3,3.25
same,MIC,[3]; isolate MRSA#3,1.56
same,MBC,[3]; isolate MRSA#6,1.56/1.56
same,MIC,[3]; isolate MRSA#6,1.56/1.56
same,MBC,[3]; isolate MRSA#15,3.25/3.25
same,MIC,[3]; isolate MRSA#15,3.25/3.25
same,MBC,[3]; isolate MRSA#28,3.25/3.25
same,MIC,[3]; isolate MRSA#28,3.25/3.25
same,MBC,[3]; isolate MRSA#31,3.25/3.25
same,MIC,[3]; isolate MRSA#31,3.25/3.25
same,MBC,[3]; isolate MRSA#37,3.25
same,MIC,[3]; isolate MRSA#37,1.56
same,MBC,[3]; isolate MRSA#39,3.25/3.25
same,MIC,[3]; isolate MRSA#39,3.25/3.25
same,MBC,[3]; isolate MRSA#42,1.56/1.56
same,MIC,[3]; isolate MRSA#42,1.56/1.56
same,MBC,[3]; isolate MRSA#43,3.25
same,MIC,[3]; isolate MRSA#43,1.56
same,MBC,[3]; strain USA 300,3.25
same,MIC,[3]; strain USA 300,1.56
same,MBC,[4]; [6],1.56/1.56 ∞g
same,MIC,[4]; [6],1.56/1.56 ∞g
same,MBC,[4]; [7],3.25 ∞g
same,MIC,[4]; [7],1.56 ∞g
same,MBC,[4]; [8],1.56 ∞g
same,MIC,[4]; [8],0.78 ∞g
same,MBC,[4]; [9],3.25/3.25 ∞g
same,MIC,[4]; [9],3.25/3.25 ∞g
same,MBC,[4]; [10],1.56/1.56 ∞g
same,MIC,[4]; [10],1.56/1.56 ∞g
same,MBC,"[4]; MSSA table, isolate MRSA#55",3.25 ∞g
same,MIC,"[4]; MSSA table, isolate MRSA#55",1.56 ∞g
same,MBC,[4]; [11],3.25 ∞g
same,MIC,[4]; [11],1.56 ∞g
same,MBC,[4]; [12],1.56 ∞g
same,MIC,[4]; [12],0.78 ∞g
same,MBC,[4]; [13],3.25 ∞g
same,MIC,[4]; [13],1.56 ∞g
same,MBC,[4]; [14],3.25/3.25 ∞g
same,MIC,[4]; [14],3.25/3.25 ∞g
same,MBC,[4]; strain BAA 1721,3.25 ∞g
same,MIC,[4]; strain BAA 1721,1.56 ∞g
same,lowest dose at which no MSSA growth was observed (growth curve),[5],3.13 µg
